This note sets out measurements from the NIST ThermoML archive (doi:10.1021/je060441j).

The conditions of series [1]: Liquid.
Series [2] is described as follows: xn = mol fraction of the nth substance listed. The settings on record: 101 kPa, Liquid, x1 = 1.

± gives the expanded uncertainty stated by the source.

Consider `CO` [methanol], for which the mass density in series [1] (288.15 K, 101 kPa) is listed as 796.093 ± 0.23 kg/m3; in series [1] (293.15 K, 101 kPa), 791.4 ± 0.23 kg/m3; in series [1] (298.15 K, 101 kPa), 786.694 ± 0.23 kg/m3; in series [1] (303.15 K, 101 kPa), 781.966 ± 0.24 kg/m3; in series [1] (308.15 K, 101 kPa), 777.213 ± 0.24 kg/m3; in series [1] (313.15 K, 101 kPa) it was 772.443 ± 0.24 kg/m3.
For `ClC(Cl)Cl` [trichloromethane], the mass density in series [1] (288.15 K, 101 kPa) amounted to 1498.08 ± 0.47 kg/m3; in series [1] (293.15 K, 101 kPa), 1488.64 ± 0.46 kg/m3; in series [1] (298.15 K, 101 kPa), 1479.15 ± 0.45 kg/m3; in series [1] (303.15 K, 101 kPa), 1469.61 ± 0.45 kg/m3; in series [1] (308.15 K, 101 kPa) it was 1460.03 ± 0.44 kg/m3; in series [1] (313.15 K, 101 kPa), 1450.41 ± 0.43 kg/m3.
On to `CO` [methanol] + ClC(Cl)Cl, for which the mass density in series [2] (288.15 K) came to 796.093 ± 0.23 kg/m3; in series [2] (293.15 K), 791.4 ± 0.23 kg/m3; in series [2] (298.15 K), 786.694 ± 0.23 kg/m3; in series [2] (303.15 K), 781.966 ± 0.24 kg/m3; in series [2] (308.15 K), 777.213 ± 0.24 kg/m3; in series [2] (313.15 K), 772.443 ± 0.24 kg/m3.
For the compound `c1ccccc1` [benzene], in series [1] (298.15 K, 101.33 kPa), the mass density stood at 873.582 ± 0.16 kg/m3.
